# Experiment: Separate experiment: dissolving and recrystallizing in a solvent (crystal form / salt stability)
# Format: physicochemical
smiles,measurement,value
CNC(=O)c1cc(Oc2ccc(NC(=O)Nc3ccc(Cl)c(C(F)(F)F)c3)cc2)ccn1.Cc1ccc(S(=O)(=O)O)cc1 [Sorafenib tosylate III],crystal form and salt stability on recrystallization,crystal form change and partial generation of free base compound by loss of tosylate salt
